In patent US20130310347A1, “MULTI-MODALITY MOLECULAR IMAGING HIGH-THROUGHPUT ASSAY FOR IDENTIFYING HEAT SHOCK PROTEIN 90 (HSP90) INHIBITORS” (The Board of Trustees of the Leland Stanford Junior …, priority 2012, published 2013):

Tests used:
Hsp90 client proteins = assay: Western blotting of Hsp90 client proteins in normal MEF cells; format: cell-based; settings: normal mouse embryonic fibroblasts
Description: CP9 had no effect on the expression of the Hsp90 client proteins in normal mouse embryonic fibroblasts (MEF) cells (FIG. 10C).

purified Hsp90α = purified Hsp90α (Homo sapiens, UniProt P07900); assay: In vitro competitive binding with 3H-17AAG; settings: CP9 200 μM pre-incubation; p<0.05
Description: (§1) FIG. 5C is a graph illustrating the competitive in vitro binding of CP9 with ^3H-17AAG to Hsp90(α/β). Purified Hsp90(α/β) was pre-incubated with CP9 (200 μM) or cold 17-AAG (50 μM) prior to incubation with ^3H-17AAG. The reaction complexes were then eluted through a desalting column to remove any unbound ^3H-17AAG prior to scintillation counting for the amount of ^3H-17AAG bound to Hsp90(α/β). Columns incubated with ^3H-17AAG alone served as negative controls. Results are expressed as means of triplicates±S.E.M. *, p<5×10^−6 vs. carrier control-treated cells.
(§2) To confirm the direct binding of CP9 to Hsp90(α/β), an in vitro competitive binding assay using purified Hsp90α and Hsp90β was performed using radiolabeled Hsp90 inhibitor ^3H-17AAG. Hsp90 proteins were pre-bound with CP9 or cold 17-AAG as a control prior to incubation with ^3H-17AAG. Unbound ^3H-17AAG was removed and the amount of ^3H-17AAG bound to the Hsp90 proteins was determined. […] To confirm cellular Hsp90 as the target of CP9, uptake studies in intact HT29 cells were performed by monitoring the competitive binding of ^3H-17AAG. […]
(§3) To verify the binding of CP9 to Hsp90α and Hsp90β in vitro, a displacement assay using ^3H-17AAG was performed. […] The amount of ^3H-17AAG that remained bound to Hsp90α or Hsp9013 was determined by scintillation counting.

purified Hsp90β = purified Hsp90β (Homo sapiens, UniProt P08238); assay: In vitro competitive binding with 3H-17AAG; settings: CP9 200 μM pre-incubation
Description: as §1, §2, §3

normal MEFs = assay: Alamar Blue cell proliferation; format: cell-based, mouse
Description: CP9 had no effect on proliferation of normal MEFs. Since CP9 led to decrease in phosphorylated Akt (FIGS. 5A and 10A-10C), it was expected to inhibit glucose metabolism through relief of inhibition of glycogen synthase kinase […] (Nair & Olanow (2008) J. Biol. Chem. M707238200; Dandekar et al., (2007) J. Nucl. Med. 48: 602-607).

[1] = 18F-FDG uptake in the brains of mice; format: in vivo; settings: CP9 treated mice; P>0.05 vs carrier
Description: The ^18F-FDG uptake in the brains of mice using CT images to delineate boundaries was also analyzed. Relative to day 0, the maximum % ID/g of ^18F-FDG uptake was 114±11% in mice treated with carrier and 99±4% in mice treated with CP9. There was no statistical difference between the two groups (P>0.05).

pAkt/total Akt and Raf-1 = assay: Western blotting of client proteins in 293T-FG cells (CP9 analogues); format: cell-based, human; settings: different concentrations
Description: Cells treated with PU-H71 and 17-AAG (2.5 μM) served as positive controls. α-Tubulin was used as the loading control.
To determine if the reduction in IC50 for Hsp90(α/β)/p23 interactions also led to improved efficacy of A17 as an Hsp90 inhibitor, 293T-FG cells were treated with different concentrations of CP9 and A17. PU-H71 and 17AAG were used as positive controls. The expression of pAkt/total Akt and Raf-1 was determined by western blotting. […] Since A17 has a lower logP value (partition coefficient) than CP9 (2.8 versus 4.1), it may be more hydrophilic, have less non-specific binding to serum proteins and thus better bioavailability in tumors.
CP9 (0.3-10 μM), 17-AAG (10 μM) and PU-H71 (5 μM) were used as positive controls in triplicate wells. The efficacy of the analogues in disruption of Hsp90(α/β)/p23 and cell proliferation were monitored by RL imaging (2 h post upon addition of ENDUREN® at 30 μM final concentration) followed by FL imaging (10 mins post addition of D-Luc at 0.225 mg/ml final concentration) using a cooled CCD camera (1 min and 10 sec for RL and FL imaging, respectively). RL signals were normalized to that of FL signals to account for the effect of the analogues on cell proliferation. […] The effect of the CP9 analogues on degradation of Hsp90 client proteins in 293T cells were also monitored by western blotting as described above.

Chain of purified Hsp90β (P08238 whole entry): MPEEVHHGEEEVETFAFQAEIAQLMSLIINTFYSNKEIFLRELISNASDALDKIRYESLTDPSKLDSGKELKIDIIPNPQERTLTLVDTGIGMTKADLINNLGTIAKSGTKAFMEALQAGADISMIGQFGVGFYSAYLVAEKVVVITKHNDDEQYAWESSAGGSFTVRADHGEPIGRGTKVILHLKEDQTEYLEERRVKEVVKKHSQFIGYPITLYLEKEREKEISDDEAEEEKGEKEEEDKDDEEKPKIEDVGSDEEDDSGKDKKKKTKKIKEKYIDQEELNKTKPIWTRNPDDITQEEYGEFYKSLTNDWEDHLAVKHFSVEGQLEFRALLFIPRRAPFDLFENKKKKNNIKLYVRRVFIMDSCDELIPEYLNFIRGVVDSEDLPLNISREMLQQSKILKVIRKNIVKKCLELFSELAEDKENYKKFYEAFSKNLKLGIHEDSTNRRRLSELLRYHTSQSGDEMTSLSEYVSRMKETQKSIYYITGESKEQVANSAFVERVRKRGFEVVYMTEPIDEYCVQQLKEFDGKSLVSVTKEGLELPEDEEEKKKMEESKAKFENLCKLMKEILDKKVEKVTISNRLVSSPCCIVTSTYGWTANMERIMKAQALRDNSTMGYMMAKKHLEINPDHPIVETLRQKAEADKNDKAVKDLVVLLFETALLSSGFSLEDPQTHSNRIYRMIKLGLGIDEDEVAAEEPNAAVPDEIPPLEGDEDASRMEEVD

reduction of binding of 3H-17AAG to purified Hsp90α (purified Hsp90α): about 50%
binding of 3H-17AAG to Hsp90β (purified Hsp90β): did not significantly affect
maximum % ID/g of 18F-FDG uptake in brain relative to day 0 [1]: 99±4%
SMILES: Cc1cc(NC(=O)CSc2nc(-c3cccs3)cc(C(F)(F)F)n2)no1 [CP9, N-(5-methylisoxazol-3-yl)-2-(4-(thiophen-2-yl)-6-(trifluoromethyl)pyrimidin-2-ylthio)acetamide]
expression of Hsp90 client proteins (Hsp90 client proteins): no effect
proliferation of normal MEFs (normal MEFs): no effect
degradation of pAkt/total Akt and Raf-1 (pAkt/total Akt and Raf-1): dose-dependent decreases
